Test [1] in a line: fluconazole-exposed Candida albicans growth modulators – fluorescence, retest, confirmation (AID 2467). In kind it is functional, cell-based.
Test [2] has as its target Beta Lactamase (Pseudomonas aeruginosa, UniProt Q932Y6). The experiment in a line: BLA reporter interference, concentration series – BLA reporter cells, FRET fluorescence, artefact control for TLR9-MyD88 binding inhibitor project, dose response (AID 588341).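 Also: cell based assay in CHO-K1 cells stably expressing beta-lactamase.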 It is filed as cell-based.
Test [3] in a line: Trypanosoma cruzi growth suppression in host cells – NIH3T3 host cells, beta-gal luminescence, confirmation (AID 2044).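 Also: intracellular parasites grown in NIH/3T3 mouse fibroblasts as host cells; luminescent beta-galactosidase reporter signal from transgenic T. cruzi replicating inside host cells; inhibitors lower the luminescence signal.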 In kind it is functional, cell-based.
The nature of test [4]: NIH-3T3 fibroblast cytotoxicity, dose response, cytotoxicity control, cell-based, fluorescence, Alamar Blue, secondary assay (AID 2327).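 Also: NIH-3T3 mouse fibroblasts cultured with fluconazole at 8 µg/mL.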 In kind it is functional. In general terms: The colour change of resazurin is a common sign of viable cells or microbes.
A short description of test [5]: general mammalian cell viability loss – inhibitor set, cherry-pick, set 2, cytotoxicity control for miR-122 modulator project, dose response (AID 720697). It is filed as functional, cell-based.
Test [6] deals with CHO. The experiment in a line: CHO cell viability loss, potency – luminescence, cytotoxicity control for TLR9-MyD88 binding inhibitor project, dose response (AID 588339).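 Also: CHO cells stably coexpressing TLR9 and MyD88 fusions from primary screen; compound exposure lasted 48 hours before viability readout.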 The settings on record: Cricetulus griseus. It is filed as functional, cell-based, hamster.
In test [7] the target is T1, Replicative DNA helicase DnaB (Mycobacterium tuberculosis, UniProt P9WMR3).
T1 sequence (P9WMR3 whole entry): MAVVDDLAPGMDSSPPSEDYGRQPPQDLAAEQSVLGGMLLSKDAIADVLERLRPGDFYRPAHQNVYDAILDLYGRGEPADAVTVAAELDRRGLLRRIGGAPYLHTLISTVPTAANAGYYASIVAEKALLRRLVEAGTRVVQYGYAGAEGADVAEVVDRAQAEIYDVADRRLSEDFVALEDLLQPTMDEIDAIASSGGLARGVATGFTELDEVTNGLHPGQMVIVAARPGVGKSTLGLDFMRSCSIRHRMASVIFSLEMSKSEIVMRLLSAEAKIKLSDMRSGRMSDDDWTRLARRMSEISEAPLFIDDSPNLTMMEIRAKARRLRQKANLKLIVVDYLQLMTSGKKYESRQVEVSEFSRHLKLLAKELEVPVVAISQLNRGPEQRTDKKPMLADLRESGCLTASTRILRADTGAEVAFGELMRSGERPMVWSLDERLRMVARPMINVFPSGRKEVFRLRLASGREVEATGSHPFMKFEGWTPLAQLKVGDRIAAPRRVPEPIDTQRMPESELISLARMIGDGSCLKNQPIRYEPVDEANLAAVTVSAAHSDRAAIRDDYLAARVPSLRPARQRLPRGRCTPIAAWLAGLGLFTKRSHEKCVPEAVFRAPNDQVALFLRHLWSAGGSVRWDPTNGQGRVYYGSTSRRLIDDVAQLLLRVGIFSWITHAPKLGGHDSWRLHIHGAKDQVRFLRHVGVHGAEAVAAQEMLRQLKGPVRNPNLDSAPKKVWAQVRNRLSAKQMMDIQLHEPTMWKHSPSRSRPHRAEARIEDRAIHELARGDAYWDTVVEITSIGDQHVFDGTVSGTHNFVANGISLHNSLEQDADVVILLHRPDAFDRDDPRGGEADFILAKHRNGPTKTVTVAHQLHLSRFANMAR
The experiment in a line: DnaB intein splicing inhibitors, dose response, biochemical, cell-free fluorescence (AID 449749). It is filed as functional.

A short description of test [8]: Intein inhibitors as potential Tuberculosis drugs, a cytotoxicity screen. [Related pubchem assays (depositor defined):AID2221, AID2223, AID434968, AID435010, AID449749, AID449750, AID489010]. In kind it is functional.
In test [9] the target is T2, Protein RecA (Mycobacterium tuberculosis, UniProt P9WHJ3).
T2 sequence (P9WHJ3 whole entry): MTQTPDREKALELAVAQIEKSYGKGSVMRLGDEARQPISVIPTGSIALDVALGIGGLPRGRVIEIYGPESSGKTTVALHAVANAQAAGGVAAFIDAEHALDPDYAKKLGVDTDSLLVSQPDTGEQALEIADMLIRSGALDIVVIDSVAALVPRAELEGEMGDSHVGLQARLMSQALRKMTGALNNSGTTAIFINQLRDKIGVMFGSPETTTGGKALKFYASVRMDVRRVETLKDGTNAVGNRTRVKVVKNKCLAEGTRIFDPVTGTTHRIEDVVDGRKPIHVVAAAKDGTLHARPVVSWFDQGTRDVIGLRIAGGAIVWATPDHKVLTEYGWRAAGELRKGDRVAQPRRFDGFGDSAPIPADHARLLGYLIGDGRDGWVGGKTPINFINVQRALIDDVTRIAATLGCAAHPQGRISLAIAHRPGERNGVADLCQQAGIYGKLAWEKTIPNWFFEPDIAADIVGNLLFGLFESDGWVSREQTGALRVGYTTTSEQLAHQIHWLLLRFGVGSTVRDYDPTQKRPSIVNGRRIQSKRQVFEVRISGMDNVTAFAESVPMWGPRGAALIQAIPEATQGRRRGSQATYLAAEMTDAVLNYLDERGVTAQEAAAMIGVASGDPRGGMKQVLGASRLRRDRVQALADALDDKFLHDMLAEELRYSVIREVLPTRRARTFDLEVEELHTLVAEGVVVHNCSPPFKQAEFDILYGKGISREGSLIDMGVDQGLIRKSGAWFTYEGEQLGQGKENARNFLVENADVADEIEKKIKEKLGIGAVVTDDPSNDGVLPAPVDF
The experiment in a line: Fluorescence Cell-Free Homogeneous Dose Retest to Identify Inhibitors of RecA-Intein Splicing Activity. [Related pubchem assays (depositor defined):AID2097, AID2223, AID489010, AID492950]. In kind it is functional.

Test [10] addresses Sphingosine 1-phosphate receptor 2 (Homo sapiens, UniProt O95136). The experiment in a line: Dose Response Cell Based Assay for Antagonists of the S1P2 Receptor. [Related pubchem assays: 856, 736 ]. It is filed as functional.
Test [11] is described as follows: reduction of Shn3 3'UTR-driven luciferase in osteoblasts – cell-based, Clone20 osteoblasts, firefly luciferase, cherry-picked, dose response (AID 624132).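 Also: firefly luciferase luminescence from reporter carrying the Shn3 3'UTR in osteoblasts.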 It is filed as functional.
Test [12] in a line: loss of viability in HepG2 cells – cell-based, CellTiter-Glo, cherry-picked, cytotoxicity control for Shn3 inhibitor project, dose response (AID 624134). It is filed as functional. In general terms: Cellular ATP, detected with luciferase, serves as a proxy for viable cell number.
Test [13] is described as follows: non-specific 3'UTR reporter inhibition in Clone20-Shn3RL – cell-based, Renilla luciferase, cherry-picked, counter-screen for Shn3 inhibitor project, dose response (AID 624133). It is filed as functional. For orientation: The purpose of a counterscreen is to sort out artefacts and off-target activity.
The nature of test [14]: activation of miR-122 Renilla sensor silencing – cell-based, Huh7 psiCHECK-miR122, Renilla luciferase, cherry-picked, dose response (AID 651956).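 Also: huh7 hepatoma cells stably carrying a psiCHECK-2 miR-122 sensor plasmid; renilla luciferase signal reporting endogenous miR-122 activity after 48 h compound exposure.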 In kind it is functional.
Test [15] is described as follows: NIH3T3 cell viability loss – ATP luminescence, mouse fibroblasts, counter-screen, dose response (AID 2010).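 Also: cells exposed to compound for about 90 hours before reading.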 In kind it is functional, cell-based.
Test [16] in a line: general mammalian cell viability loss – activator set, cherry-pick, cytotoxicity control for miR-122 modulator project, dose response (AID 720690).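 Also: HEK293T human cells scored for general mammalian cytotoxicity.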 In kind it is functional, cell-based.
In test [17] the target is T3, Heat shock factor protein 1 (Mus musculus, UniProt P38532).
T3 sequence (P38532 whole entry): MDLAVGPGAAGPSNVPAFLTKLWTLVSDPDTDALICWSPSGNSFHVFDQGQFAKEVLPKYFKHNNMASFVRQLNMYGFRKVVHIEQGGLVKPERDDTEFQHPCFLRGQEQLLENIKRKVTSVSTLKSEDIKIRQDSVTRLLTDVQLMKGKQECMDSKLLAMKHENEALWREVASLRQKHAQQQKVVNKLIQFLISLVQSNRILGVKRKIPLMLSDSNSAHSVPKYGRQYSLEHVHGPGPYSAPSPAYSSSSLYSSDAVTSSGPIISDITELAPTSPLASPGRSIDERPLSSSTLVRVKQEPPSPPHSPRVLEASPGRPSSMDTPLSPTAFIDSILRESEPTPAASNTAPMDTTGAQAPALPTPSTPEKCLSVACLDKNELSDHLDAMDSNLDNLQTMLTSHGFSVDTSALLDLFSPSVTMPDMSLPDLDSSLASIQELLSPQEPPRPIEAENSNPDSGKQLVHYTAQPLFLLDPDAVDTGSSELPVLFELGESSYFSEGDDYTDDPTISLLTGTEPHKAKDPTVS
The experiment in a line: decrease of HSF1-responsive luciferase luminescence – cell-based, NIH3T3, dose retest, confirmation (AID 2382).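 Also: NIH3T3 fibroblasts with HSF1-driven luciferase reporter stressed by proteasome inhibitor MG132; luminescence from HSF1-driven luciferase expression after 8 hours of MG132 stress.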 It is filed as functional.

The subject of test [18] is INS1. The experiment in a line: INS-1E survival protection against cytokine death – cell-based, luminescence, retest, dose response (AID 449756).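 Also: cell death triggered by IL-1 beta plus TNF-alpha plus IFN-gamma mixture; protective hits raise ATP signal compared with cytokine alone wells.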 It is filed as functional. The following applies: Rattus norvegicus.
The nature of test [19]: Luminescent dose response cell-based high throughput screening assay for inhibitors of the Janus kinase 2 mutant JAK2V617F. [Related pubchem assays: 1446 (Primary screen.), 1521 (Confirmation assay.), 1486 (Counter screen.)]. In kind it is functional.
Test [20] concerns HeLa. The experiment in a line: Cytotoxicity counterscreen assay for transcriptional activators of heat shock protein 70 (Hsp70). [Related pubchem assays: 1203, 1252 ]. In kind it is functional. The settings on record: Homo sapiens.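 Also: cells exposed to compound for 16 hours before readout.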
The target of test [21] is Sphingosine 1-phosphate receptor 1 (Homo sapiens, UniProt P21453). It is filed as functional.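 Also: Tango beta-arrestin reporter U2OS cells stimulated with S1P near its EC80; inhibitor potency meaning antagonism of receptor activation by the natural agonist.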
The nature of test [22]: viability of PTEN-deleted HCT116 cells – cell-based, HCT116 PTEN knockout, dose response (AID 1047).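 Also: HCT116 colon tumor cells with PTEN knocked out; cells exposed to compound for 60 hours before readout.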 In kind it is functional.
The target in test [23] is T4, Sphingosine 1-phosphate receptor 4 (Homo sapiens, UniProt O95977). The experiment in a line: Fluorescence dose response cell-based high throughput screening assay for antagonists of the Sphingosine 1-Phosphate Receptor 4 (S1P4). [Related pubchem assays: 1524 (Confirmation in triplicates.), 1510 (Primary screen.)]. In kind it is functional.
The target of test [24] is T4, Sphingosine 1-phosphate receptor 4. The experiment in a line: Late stage fluorescence dose response cell-based screening assay for antagonists of the Sphingosine 1-Phosphate Receptor 4 (S1P4). [Related pubchem assays: 1524 (Confirmation screen (S1P4 antagonists).), 1510 (Primary screen (S1P4 antagonists).), 1853 (Summary AID (S1P4 antagonists).), 1692 (Dose response screen (S1P4 antagonists).)]. In kind it is functional.

The nature of test [25]: viability of HCT116 lacking mutant beta-catenin – cell-based, human colon tumor, dose response (AID 1045).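 Also: HCT116 colon tumor cells with beta catenin knocked out; cells exposed to compound for 60 hours.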 In kind it is functional.
Test [26] has as its target T5, NADPH oxidase 1 (Homo sapiens, UniProt Q9Y5S8).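 Also: Cell-based assay with luminescence read-out, IC50 derived from inhibitor dose-response curves; intracellular ROS from endogenous NOX1 in intact HT29 colon cancer cells; potency of inhibitors that lower the ROS luminescence signal.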
T5 sequence (Q9Y5S8 whole entry): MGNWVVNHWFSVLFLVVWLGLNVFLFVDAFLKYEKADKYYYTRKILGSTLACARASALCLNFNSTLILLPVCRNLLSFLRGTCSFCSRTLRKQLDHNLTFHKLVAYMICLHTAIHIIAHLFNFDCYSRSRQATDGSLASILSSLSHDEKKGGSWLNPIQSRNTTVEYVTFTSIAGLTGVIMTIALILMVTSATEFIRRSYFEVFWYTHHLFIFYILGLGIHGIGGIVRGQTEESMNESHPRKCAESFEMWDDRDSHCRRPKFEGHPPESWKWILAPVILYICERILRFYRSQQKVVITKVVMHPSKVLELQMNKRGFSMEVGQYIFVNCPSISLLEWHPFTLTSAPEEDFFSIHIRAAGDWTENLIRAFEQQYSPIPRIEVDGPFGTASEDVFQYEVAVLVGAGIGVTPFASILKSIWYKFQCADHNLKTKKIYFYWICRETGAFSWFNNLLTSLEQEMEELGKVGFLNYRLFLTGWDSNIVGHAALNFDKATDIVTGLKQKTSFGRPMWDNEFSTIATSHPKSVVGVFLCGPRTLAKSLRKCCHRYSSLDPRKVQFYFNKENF
In kind it is functional, cell-based.

In test [27] the target is Ion channel NompC (Danio rerio, UniProt Q7T1G6). The experiment in a line: Fluorescence counterscreen assay for TRPML3 agonists: dose response cell-based high-throughput screening assay to identify agonists of the transient receptor potential channel N1 (TRPN1). [Related pubchem assays: 1526, 1424, 1448 ]. It is filed as functional.
For test [28], the target named is Mucolipin-3 (Homo sapiens, UniProt Q8TDD5). The experiment in a line: Dose response cell-based high-throughput screening assay for agonists of the transient receptor potential channel ML3 (TRPML3). [Related pubchem assays: 1526, 1424, 1448 ]. It is filed as functional.

Activity calls are given as the source filed them. Bounds are passed on as bounds.

T4 sequence (O95977 whole entry): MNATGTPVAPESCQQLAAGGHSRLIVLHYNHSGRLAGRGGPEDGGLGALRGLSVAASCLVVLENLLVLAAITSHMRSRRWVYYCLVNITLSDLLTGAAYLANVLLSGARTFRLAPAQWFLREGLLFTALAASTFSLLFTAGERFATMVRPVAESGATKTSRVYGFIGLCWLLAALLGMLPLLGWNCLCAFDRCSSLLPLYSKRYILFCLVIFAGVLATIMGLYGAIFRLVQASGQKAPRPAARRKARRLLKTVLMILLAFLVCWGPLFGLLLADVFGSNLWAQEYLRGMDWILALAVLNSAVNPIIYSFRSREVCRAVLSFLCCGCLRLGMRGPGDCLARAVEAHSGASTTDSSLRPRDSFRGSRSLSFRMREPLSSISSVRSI
Chain of Beta Lactamase (Q932Y6 whole entry): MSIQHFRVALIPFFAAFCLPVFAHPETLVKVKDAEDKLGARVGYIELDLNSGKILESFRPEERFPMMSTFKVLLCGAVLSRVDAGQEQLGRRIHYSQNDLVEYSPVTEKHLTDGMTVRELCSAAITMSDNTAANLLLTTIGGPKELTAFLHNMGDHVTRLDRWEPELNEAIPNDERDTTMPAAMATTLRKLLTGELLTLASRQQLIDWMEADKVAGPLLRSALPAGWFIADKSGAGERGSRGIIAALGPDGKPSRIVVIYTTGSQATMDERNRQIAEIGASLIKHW
Chain of Ion channel NompC (Q7T1G6 whole entry): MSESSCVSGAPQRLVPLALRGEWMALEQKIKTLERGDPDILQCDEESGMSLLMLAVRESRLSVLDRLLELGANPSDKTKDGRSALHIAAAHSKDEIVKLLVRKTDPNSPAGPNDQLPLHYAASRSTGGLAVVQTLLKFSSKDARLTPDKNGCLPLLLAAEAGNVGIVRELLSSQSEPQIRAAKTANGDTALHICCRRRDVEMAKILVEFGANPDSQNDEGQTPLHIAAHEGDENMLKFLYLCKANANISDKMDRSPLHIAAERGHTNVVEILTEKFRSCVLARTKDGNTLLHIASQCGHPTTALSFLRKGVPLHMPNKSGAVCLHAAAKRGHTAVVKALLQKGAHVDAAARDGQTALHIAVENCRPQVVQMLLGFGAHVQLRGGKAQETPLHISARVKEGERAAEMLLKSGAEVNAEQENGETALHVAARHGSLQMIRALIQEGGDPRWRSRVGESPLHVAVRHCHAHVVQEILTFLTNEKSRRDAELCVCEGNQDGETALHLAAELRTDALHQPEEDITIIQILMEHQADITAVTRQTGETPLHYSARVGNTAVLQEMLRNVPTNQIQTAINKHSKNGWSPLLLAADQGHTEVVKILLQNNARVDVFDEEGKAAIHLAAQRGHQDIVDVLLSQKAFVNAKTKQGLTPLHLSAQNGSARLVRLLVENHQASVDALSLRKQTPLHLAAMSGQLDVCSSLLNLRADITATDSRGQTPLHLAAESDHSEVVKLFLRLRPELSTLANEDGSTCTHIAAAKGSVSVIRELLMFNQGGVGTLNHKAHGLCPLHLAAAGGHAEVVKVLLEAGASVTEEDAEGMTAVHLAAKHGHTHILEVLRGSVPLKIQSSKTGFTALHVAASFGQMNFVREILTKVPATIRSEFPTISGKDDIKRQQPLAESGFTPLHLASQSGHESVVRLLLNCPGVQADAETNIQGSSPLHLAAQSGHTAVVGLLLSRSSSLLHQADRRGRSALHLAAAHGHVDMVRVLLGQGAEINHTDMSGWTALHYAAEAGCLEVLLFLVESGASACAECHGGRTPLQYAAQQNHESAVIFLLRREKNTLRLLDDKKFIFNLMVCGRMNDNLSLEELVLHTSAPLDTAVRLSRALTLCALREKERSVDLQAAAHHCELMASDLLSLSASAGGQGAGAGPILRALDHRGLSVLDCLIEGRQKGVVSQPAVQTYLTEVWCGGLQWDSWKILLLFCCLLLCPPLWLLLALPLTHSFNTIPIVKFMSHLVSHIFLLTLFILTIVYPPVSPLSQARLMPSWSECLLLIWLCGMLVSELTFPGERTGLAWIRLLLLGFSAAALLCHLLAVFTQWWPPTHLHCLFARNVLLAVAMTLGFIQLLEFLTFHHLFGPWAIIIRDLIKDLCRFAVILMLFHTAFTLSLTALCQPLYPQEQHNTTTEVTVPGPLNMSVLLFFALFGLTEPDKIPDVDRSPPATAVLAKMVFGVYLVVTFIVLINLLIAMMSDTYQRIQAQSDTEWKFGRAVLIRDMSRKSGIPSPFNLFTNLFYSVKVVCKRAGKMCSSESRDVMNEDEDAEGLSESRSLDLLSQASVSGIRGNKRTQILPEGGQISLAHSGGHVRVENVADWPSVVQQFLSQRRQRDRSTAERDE
Chain of Sphingosine 1-phosphate receptor 1 (P21453 whole entry): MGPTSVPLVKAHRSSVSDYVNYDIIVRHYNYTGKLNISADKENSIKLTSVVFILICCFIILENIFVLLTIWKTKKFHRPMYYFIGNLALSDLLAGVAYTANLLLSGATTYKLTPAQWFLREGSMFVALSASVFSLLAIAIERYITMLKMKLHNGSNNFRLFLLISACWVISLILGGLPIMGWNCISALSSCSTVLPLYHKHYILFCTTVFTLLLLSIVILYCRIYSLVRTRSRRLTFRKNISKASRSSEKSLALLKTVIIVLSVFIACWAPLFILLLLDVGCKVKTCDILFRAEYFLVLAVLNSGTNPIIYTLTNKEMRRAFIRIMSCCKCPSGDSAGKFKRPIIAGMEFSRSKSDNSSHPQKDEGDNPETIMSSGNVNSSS
Chain of Sphingosine 1-phosphate receptor 2 (O95136 whole entry): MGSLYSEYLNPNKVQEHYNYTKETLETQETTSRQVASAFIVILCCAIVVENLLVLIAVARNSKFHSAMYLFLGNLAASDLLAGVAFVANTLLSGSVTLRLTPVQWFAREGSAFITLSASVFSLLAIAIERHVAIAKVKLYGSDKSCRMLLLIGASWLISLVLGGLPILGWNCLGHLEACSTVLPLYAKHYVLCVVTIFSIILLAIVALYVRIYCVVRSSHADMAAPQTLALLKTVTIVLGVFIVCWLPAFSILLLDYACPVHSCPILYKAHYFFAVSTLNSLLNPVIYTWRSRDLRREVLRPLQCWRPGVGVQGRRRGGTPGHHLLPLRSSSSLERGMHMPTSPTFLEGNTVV
Chain of Mucolipin-3 (Q8TDD5 whole entry): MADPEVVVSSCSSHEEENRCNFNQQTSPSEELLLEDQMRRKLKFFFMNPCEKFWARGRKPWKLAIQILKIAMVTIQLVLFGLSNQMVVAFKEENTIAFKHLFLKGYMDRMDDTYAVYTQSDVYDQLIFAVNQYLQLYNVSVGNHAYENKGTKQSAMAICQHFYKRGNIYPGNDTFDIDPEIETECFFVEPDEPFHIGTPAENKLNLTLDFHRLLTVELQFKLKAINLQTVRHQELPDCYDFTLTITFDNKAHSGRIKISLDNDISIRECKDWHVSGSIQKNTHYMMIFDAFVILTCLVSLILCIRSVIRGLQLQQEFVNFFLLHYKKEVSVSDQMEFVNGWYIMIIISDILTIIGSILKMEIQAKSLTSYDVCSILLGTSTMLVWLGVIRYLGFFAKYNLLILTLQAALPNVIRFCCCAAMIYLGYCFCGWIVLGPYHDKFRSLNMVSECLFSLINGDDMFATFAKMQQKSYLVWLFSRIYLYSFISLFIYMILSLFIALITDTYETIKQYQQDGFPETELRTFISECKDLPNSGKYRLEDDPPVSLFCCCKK

Turning to `O=C(OCn1ncc(Cl)c(Cl)c1=O)c1ccccc1Cl`, the EC50 was > 38 µM (not active) in test [1]; 1.04 µM (active) in test [3]; 2.57 µM (inconclusive) in [4]; 0.669 µM (active) in test [9]; 1.07 µM (active) in test [15]; 1.99 µM (active) in test [17]. Moreover, the IC50 was > 49.8 µM (inactive) in [2], 1.64 µM (active) in test [6], 3.15 µM (active) in [10] and 0.401 µM (active) in test [19]. The AC50 in test [5] is 4.39 µM (active); in test [7], 3.32 µM (active); in test [11] it was 3.56 µM (active); in [12], 27.3 µM (active); in test [13], 3.56 µM (active); in test [14] it was 11.2 µM (active). For the same compound, the AC50 was 4.89 µM (active) in [16] and 5.37 µM (active) in test [18]. Further, the values for the CC50 in [8] and in [20] were 5.38 µM (active) and > 11 µM (not active), respectively.
Turning to `O=C(OCn1ncc(Br)c(Br)c1=O)c1c(F)cccc1F`, the IC50 is 7.96 µM (active) in test [21], 0.888 µM (active) in test [23] and 88.8 µM (not active) in test [24]. Also, the EC50 is 1.78 µM (active) in test [22] and 1.82 µM (active) in [25].
Take `OCCN1CCN(CCCN2c3ccccc3Sc3ccc(C(F)(F)F)cc32)CC1` [FLUPHENAZINE]: the IC50 in test [26] is > 17 µM (not active).
In the case of `CCN(CC)C(=S)SCC(=O)NC12CC3CC(CC(C3)C1)C2`, the results for the EC50 in [27] and in test [28] were > 29.9 µM (not active) and 14.7 µM (not active), respectively.

Usually EC50 stands for the concentration giving half of the maximal effect. A word on the IC50: it is the concentration that inhibits the measured activity by half. Usually AC50 stands for the concentration giving half of the maximal activity seen. As a reminder, the CC50 is the concentration at which the toxic effect on the cells reaches its halfway point.

These data come from ChEMBL document CHEMBL1201862, “PubChem BioAssay data set” (2004).
